Source: ChEMBL document CHEMBL5303573, “Mapping human microbiome drug metabolism by gut bacteria and their genes” (Nature, 2019)

Key:
General stress protein = General stress protein (Bacteroides thetaiotaomicron, UniProt Q8A7U5); experiment: (§1) The drug is tested on Bacteroides thetaiotaomicron strain: VPI-5482 for biotransformation. The drug concentrations were measured before and after a 12-h incubation by liquid-chromatography-coupled mass spectrometry (LC–MS); format: ADME; set-up: dose 2 uM; settings: 2 µM
[1] = biological target: T1, Sialic acid-specific acetylesterase (Bacteroides thetaiotaomicron, UniProt Q8A331); experiment: as §1; format: ADME; set-up: dose 2 uM; settings: 2 µM
T1 sequence (Q8A331 whole entry): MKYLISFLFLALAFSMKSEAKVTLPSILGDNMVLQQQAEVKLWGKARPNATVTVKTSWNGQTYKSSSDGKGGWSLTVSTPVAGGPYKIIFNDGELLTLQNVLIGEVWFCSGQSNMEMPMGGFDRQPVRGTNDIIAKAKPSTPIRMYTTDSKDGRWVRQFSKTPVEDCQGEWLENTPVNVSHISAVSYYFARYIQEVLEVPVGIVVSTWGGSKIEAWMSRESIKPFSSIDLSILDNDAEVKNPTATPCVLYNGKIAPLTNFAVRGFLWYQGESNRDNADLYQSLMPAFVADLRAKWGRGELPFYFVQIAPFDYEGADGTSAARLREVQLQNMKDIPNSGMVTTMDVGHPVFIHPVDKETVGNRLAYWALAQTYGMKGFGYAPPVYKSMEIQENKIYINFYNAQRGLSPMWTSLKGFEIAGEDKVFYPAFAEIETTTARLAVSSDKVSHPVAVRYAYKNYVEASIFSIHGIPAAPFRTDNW

[2] = biological target: T2, 3-oxo-5-alpha-steroid 4-dehydrogenase (Bacteroides thetaiotaomicron, UniProt Q8A618); experiment: as §1; format: ADME; set-up: dose 2 uM; settings: 2 µM
T2 sequence (Q8A618 whole entry): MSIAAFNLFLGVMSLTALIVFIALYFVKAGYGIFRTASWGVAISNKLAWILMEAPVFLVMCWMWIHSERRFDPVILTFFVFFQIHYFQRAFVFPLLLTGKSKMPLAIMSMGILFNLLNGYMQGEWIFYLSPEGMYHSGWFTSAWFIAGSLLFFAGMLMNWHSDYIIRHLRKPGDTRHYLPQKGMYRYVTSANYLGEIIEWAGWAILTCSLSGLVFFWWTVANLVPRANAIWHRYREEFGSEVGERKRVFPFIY

[3] = biological target: T3, Lipolytic enzyme, G-D-S-L family (Bacteroides thetaiotaomicron, UniProt Q8A0E6); experiment: as §1; format: ADME; set-up: dose 2 uM; settings: 2 µM
T3 sequence (Q8A0E6 whole entry): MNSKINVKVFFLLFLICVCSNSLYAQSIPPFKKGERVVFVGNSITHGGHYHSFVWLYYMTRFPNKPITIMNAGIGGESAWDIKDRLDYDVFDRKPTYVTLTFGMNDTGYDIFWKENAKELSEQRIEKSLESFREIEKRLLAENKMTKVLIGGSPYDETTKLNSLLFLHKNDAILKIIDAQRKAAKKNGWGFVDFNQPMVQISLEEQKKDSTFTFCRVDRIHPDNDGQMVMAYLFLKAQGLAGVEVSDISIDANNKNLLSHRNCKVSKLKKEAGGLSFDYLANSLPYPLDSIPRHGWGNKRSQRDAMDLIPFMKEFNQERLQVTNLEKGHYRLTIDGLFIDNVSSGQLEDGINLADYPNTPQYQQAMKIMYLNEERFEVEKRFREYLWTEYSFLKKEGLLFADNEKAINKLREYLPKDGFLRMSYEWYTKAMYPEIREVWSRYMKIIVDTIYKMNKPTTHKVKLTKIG

Endoglucanase E (EGE) = biological target: T4, Endoglucanase E (EGE) (Bacteroides thetaiotaomicron, UniProt Q8AAL9); experiment: as §1; format: ADME; set-up: dose 2 uM; settings: 2 µM
T4 sequence (Q8AAL9 whole entry): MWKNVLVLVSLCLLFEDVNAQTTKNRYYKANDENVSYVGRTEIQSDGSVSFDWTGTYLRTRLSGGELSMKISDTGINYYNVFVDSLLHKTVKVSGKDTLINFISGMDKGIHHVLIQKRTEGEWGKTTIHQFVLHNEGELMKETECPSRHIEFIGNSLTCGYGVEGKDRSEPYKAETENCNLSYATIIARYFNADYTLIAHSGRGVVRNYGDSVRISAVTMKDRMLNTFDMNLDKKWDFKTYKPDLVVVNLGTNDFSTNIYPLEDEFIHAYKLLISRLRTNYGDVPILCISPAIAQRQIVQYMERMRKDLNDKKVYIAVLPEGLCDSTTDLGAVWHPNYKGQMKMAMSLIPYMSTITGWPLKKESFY

Nitroreductase = biological target: T5, Nitroreductase (Bacteroides thetaiotaomicron, UniProt Q8A911); experiment: as §1; format: ADME; set-up: dose 2 uM; settings: 2 µM
T5 sequence (Q8A911 whole entry): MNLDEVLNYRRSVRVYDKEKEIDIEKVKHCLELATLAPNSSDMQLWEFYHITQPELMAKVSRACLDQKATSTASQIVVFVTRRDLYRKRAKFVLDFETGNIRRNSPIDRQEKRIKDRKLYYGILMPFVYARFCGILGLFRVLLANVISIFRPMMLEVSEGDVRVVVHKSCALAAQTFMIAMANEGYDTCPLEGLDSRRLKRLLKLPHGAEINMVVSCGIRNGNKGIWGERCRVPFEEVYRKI

[4] = biological target: T6, Nitroreductase-like protein (Bacteroides thetaiotaomicron, UniProt Q8AB93); experiment: as §1; format: ADME; set-up: dose 2 uM; settings: 2 µM
T6 sequence (Q8AB93 whole entry): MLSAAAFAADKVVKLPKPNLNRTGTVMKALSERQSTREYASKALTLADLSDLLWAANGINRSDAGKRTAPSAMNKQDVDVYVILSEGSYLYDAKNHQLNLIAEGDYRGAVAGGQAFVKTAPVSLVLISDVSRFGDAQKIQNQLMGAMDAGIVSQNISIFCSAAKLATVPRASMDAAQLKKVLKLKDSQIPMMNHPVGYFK

Regulatory protein = biological target: T7, Regulatory protein (Bacteroides thetaiotaomicron, UniProt Q8A576); experiment: as §1; format: ADME; set-up: dose 2 uM; settings: 2 µM
T7 sequence (Q8A576 whole entry): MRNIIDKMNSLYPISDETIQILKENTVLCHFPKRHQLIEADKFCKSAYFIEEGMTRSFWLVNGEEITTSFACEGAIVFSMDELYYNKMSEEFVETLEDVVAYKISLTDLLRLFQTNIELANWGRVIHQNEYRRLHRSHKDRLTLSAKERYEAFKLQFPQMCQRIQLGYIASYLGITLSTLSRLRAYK

[5] = The drug is tested on Dorea formicigenerans strain: ATCC27755 for biotransformation. The drug concentrations were measured before and after a 12-h incubation by liquid-chromatography-coupled mass spectrometry (LC–MS); settings: 2 µM
[6] = limosilactobacillus reuteri cf48-3a, 12 h, 2 µM
Description: The drug is tested on Lactobacillus reuteri CF48-3A strain: BEI HM-102 for biotransformation. The drug concentrations were measured before and after a 12-h incubation by liquid-chromatography-coupled mass spectrometry (LC–MS)

[7] = The drug is tested on Blautia hansenii strain: DSM20583 for biotransformation. The drug concentrations were measured before and after a 12-h incubation by liquid-chromatography-coupled mass spectrometry (LC–MS); settings: 2 µM
[8] = The drug is tested on Odoribacter splanchnicus strain: fecal isolate for biotransformation. The drug concentrations were measured before and after a 12-h incubation by liquid-chromatography-coupled mass spectrometry (LC–MS); settings: 2 µM
[9] = The drug is tested on Coprococcus comes strain: ATCC27758 for biotransformation. The drug concentrations were measured before and after a 12-h incubation by liquid-chromatography-coupled mass spectrometry (LC–MS); format: ADME; set-up: dose 2 uM, timepoint 0 vs 12 hours; settings: 2 µM
[10] = The drug is tested on Bacteroides fragilis strain: HMW610 for biotransformation. The drug concentrations were measured before and after a 12-h incubation by liquid-chromatography-coupled mass spectrometry (LC–MS); settings: 2 µM
[11] = bacteroides fragilis, 12 h, 2 µM
Description: The drug is tested on Bacteroides fragilis strain: NCTC 9343 for biotransformation. The drug concentrations were measured before and after a 12-h incubation by liquid-chromatography-coupled mass spectrometry (LC–MS)

Sequence of General stress protein (Q8A7U5 1-138, change not shown): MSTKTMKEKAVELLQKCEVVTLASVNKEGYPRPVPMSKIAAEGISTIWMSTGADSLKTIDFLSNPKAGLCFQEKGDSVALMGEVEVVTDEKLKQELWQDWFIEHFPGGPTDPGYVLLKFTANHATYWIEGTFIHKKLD

Row | SMILES | Bacterial Biotransformation (General stress protein) | Bacterial Biotransformation [1] | Bacterial Biotransformation [2] | Bacterial Biotransformation [3] | Bacterial Biotransformation (Endoglucanase E (EGE)) | Bacterial Biotransformation (Nitroreductase) | Bacterial Biotransformation [4] | Bacterial Biotransformation (Regulatory protein) | Bacterial Biotransformation [5] | Bacterial Biotransformation [6] | Bacterial Biotransformation [7] | Bacterial Biotransformation [8] | Bacterial Biotransformation [9] | Bacterial Biotransformation [10] | Bacterial Biotransformation [11]
1 | C[C@@H]1CC[C@H]2[C@@H](C)C(=O)O[C@@H]3O[C@@]4(C)CC[C@@H]1[C@]32OO4 [ARTEMISININ] | Compound metabolized | Compound NOT metabolized | Compound NOT metabolized | Compound NOT metabolized | Compound NOT metabolized | Compound NOT metabolized | Compound NOT metabolized | Compound NOT metabolized | Compound metabolized | Compound metabolized | Compound metabolized | Compound metabolized | Compound metabolized | Compound metabolized | Compound metabolized
2 | CC(=O)Nc1ccc(OC(C)=O)cc1 [DIACETAMATE] | Compound NOT metabolized | Compound metabolized | Compound NOT metabolized | Compound NOT metabolized | Compound metabolized | Compound NOT metabolized | Compound NOT metabolized | Compound metabolized | Compound metabolized | Compound metabolized | Compound NOT metabolized | Compound metabolized | Compound metabolized | Compound metabolized | Compound metabolized
3 | CCN(CC)C(=O)/C(C#N)=C/c1cc(O)c(O)c([N+](=O)[O-])c1 [ENTACAPONE] | Compound NOT metabolized | Compound NOT metabolized | Compound NOT metabolized | Compound NOT metabolized | Compound NOT metabolized | Compound NOT metabolized | Compound metabolized | Compound NOT metabolized | Compound metabolized | Compound metabolized | Compound metabolized | Compound metabolized | Compound metabolized | Compound metabolized | Compound metabolized
4 | COc1ccnc(C[S+]([O-])c2nc3ccc(OC(F)F)cc3[nH]2)c1OC (stereo not given) [PANTOPRAZOLE] | Compound NOT metabolized | Compound NOT metabolized | Compound NOT metabolized | Compound NOT metabolized | Compound NOT metabolized | Compound NOT metabolized | Compound NOT metabolized | Compound NOT metabolized | Compound metabolized | Compound metabolized | Compound metabolized | Compound metabolized | Compound metabolized | Compound metabolized | Compound metabolized

Now from value to compound:

Row | Bacterial Biotransformation (General stress protein) | Bacterial Biotransformation [1] | Bacterial Biotransformation [2] | Bacterial Biotransformation [3] | Bacterial Biotransformation (Endoglucanase E (EGE)) | Bacterial Biotransformation (Nitroreductase) | Bacterial Biotransformation [4] | Bacterial Biotransformation (Regulatory protein) | Bacterial Biotransformation [5] | Bacterial Biotransformation [6] | Bacterial Biotransformation [7] | Bacterial Biotransformation [8] | Bacterial Biotransformation [9] | Bacterial Biotransformation [10] | Bacterial Biotransformation [11] | SMILES
5 | Compound NOT metabolized | Compound metabolized | Compound NOT metabolized | Compound NOT metabolized | Compound metabolized | Compound NOT metabolized | Compound NOT metabolized | Compound NOT metabolized | Compound metabolized | Compound metabolized | Compound metabolized | Compound metabolized | Compound metabolized | Compound metabolized | Compound metabolized | CC(=O)Oc1ccc(C(c2ccc(OC(C)=O)cc2)c2ccccn2)cc1 [BISACODYL]
6 | Compound metabolized | Compound NOT metabolized | Compound NOT metabolized | Compound NOT metabolized | Compound NOT metabolized | Compound NOT metabolized | Compound NOT metabolized | Compound NOT metabolized | Compound metabolized | Compound NOT metabolized | Compound metabolized | Compound metabolized | Compound metabolized | Compound metabolized | Compound metabolized | Nc1ccc(/N=N/c2ccccc2)c(N)n1 [PHENAZOPYRIDINE]
